{"source": "patent US11384097B2", "about": "“Tetrahydroisoquinoline derivative, preparation method therefor and use thereof” (ZHEJIANG HISUN PHARMACEUTICAL CO., LTD., priority 2018, dated 2022)", "key": {"Human AT2R": {"target": "T1, Human AT2R (Homo sapiens, UniProt P50052)", "T1 construct": "Terbium (Tb) donor label on the receptor; From my own knowledge, the Tag-lite format usually uses an N-terminal SNAP-tag fusion labelled with Lumi4-Tb; expressed in transfected cells", "T1 sequence (P50052 1-363)": "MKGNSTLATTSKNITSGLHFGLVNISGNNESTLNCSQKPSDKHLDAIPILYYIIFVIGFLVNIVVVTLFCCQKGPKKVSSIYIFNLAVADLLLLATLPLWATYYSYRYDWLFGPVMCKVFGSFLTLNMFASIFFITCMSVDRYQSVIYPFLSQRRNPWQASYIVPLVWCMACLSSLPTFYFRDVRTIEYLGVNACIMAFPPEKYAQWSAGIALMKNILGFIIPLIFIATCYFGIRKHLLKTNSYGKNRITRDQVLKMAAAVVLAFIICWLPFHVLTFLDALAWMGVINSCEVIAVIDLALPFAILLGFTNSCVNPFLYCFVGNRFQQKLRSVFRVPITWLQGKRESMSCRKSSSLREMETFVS", "test": "Antagonistic activity assay on human AT2R ligand binding (Tag-lite HTRF, Tb-labeled-AT2R cells)", "settings": "AT2 ligand binding, red agonist fluorescent ligand"}, "[1]": {"test": "Metabolic stability in rat liver microsomes", "format": "in vitro ADME", "settings": "rat liver microsomes 0.5 mg/mL, 1 μM compound, NADPH 1 mM; read-out: Half-life/(T1/2, min)", "procedure": "Test Example 2. Study on the Metabolic Stability of the Compound of the Present Disclosure in Rat Liver Microsomes\nThe purpose of this experiment is to study the metabolic stability of the compounds of the present disclosure in rat liver microsomes.\nThe compounds were incubated with rat liver microsomes and coenzyme NADPH was added to initiate the reaction. At 0, 5, 15, 30 and 60 minutes, 20 μL of incubation solution was taken out and transferred to 200 μL of acetonitrile containing internal standard to stop the reaction. After protein precipitation, the resulting mixture was centrifuged at 3,700 rpm for 10 minutes, and the supernatant was taken. The supernatant was diluted 1:1 with water and analyzed by LC-MS/MS method. According to the elimination half-life of the test compound in the incubation system, the in vitro intrinsic clearance rate was calculated. Midazolam was used as the internal reference compound and all incubations were performed in duplicate in parallel.\nThe peak area ratio analyte/internal standard (Aanalyte/AIS) is obtained by the instrument, and the remaining percentage (% Control) is calculated from the ratio Aanalyte/AIS in the non-zero time point sample to the zero time point sample. Ln (% Control) against incubation time is plotted and a linear fit was performed."}, "[2]": {"test": "Pharmacokinetic study in SD rats (intravenous injection and intragastric administration)", "format": "in vivo, Sprague Dawley (SD) rats", "settings": "for bioavailability: Oral (10 mg/kg) vs Injection (1 mg/kg), read-out: Bioavailability F(%); for half-life: read-out: Half-life T1/2 (converted); for AUC(0-inf): read-out: area under curve AUC0-∞; for MRT: read-out: residence time MRT", "procedure": "Test Example 3. Oral Pharmacokinetic Studies of the Compounds of the Present Disclosure in SD Rats\nSD rats were used as the experimental animal. The rats were intravenously injected or intragastrically administered with the compounds of the present disclosure, and the drug concentrations in plasma at different times were tested by LC/MS/MS methods, so as to research the pharmacokinetic characteristics of compounds of present disclosure in rats.\nForty-eight healthy adult Sprague Dawley (SD) male rats were purchased from Weitong Lihua Laboratory Animal Technology Co., Ltd., production license number: 11400700271077.\n48 healthy adult male SD rats were fasted overnight and administered via tail vein injection (at a dosage of 1 mg/kg) and intragastrically administered (at a dosage of 10 mg/kg), respectively. The rats were fed 4 h after the administration.\nAbout 0.2 mL of blood was collected from the jugular vein before administering and at 0.083 hours, 0.25 hours, 0.5 hours, 1 hour, 2 hours, 4 hours, 8 hours, 12 hours, and 24 hours after administering, and heparin sodium was used for anticoagulation. Blood samples were collected and placed on ice, and plasma was separated by centrifugation (centrifugation conditions: 1500 g, 10 min). The collected plasma was stored at −40° C.-20° C. before analysis.\n10 μL of plasma sample was taken and 400 μL of acetonitrile (containing internal standard working solution, comprising 5 ng/mL verapamil and 50 ng/mL glibenclamide) was added. The resulting mixture was vortexed for 10 minutes, and centrifuged at 3700 rpm for 10 minutes. 70 μL of the supernatant was taken, and […] of water was added. The resulting mixture was vortexed for 10 minutes, and 2 μL of the mixture was transferred to the LC-MS/MS for sample analysis."}, "[3]": {"settings": "male, Sprague-Dawley, rat, plasma"}, "[4]": {"settings": "male, Sprague-Dawley, rat, plasma, Oral (10 mg/kg)"}, "[5]": {"settings": "male, Sprague-Dawley, rat, plasma, iv, Injection (1 mg/kg), tail vein"}}, "note": "Where two headings read alike, the source gives them in different places."}
{"compound": "COc1ccc(COc2c(OC)ccc3c2C[C@@H](C(=O)O)N(c2nc4ccc(F)cc4o2)C3)cc1", "note": "[Example 30, (S)-2-(6-fluorobenzo[d]oxazol-2-yl)-6-methoxy-5-((4-methoxybenzyl)oxy)-1,2,3,4-tetrahydroisoquinoline-3-carboxylic acid]", "values": [{"measurement": "IC50", "setting": "Human AT2R", "value": 4, "unit": "nM"}, {"measurement": "half-life at 1 µM", "setting": "[1]", "value": 251, "unit": "min"}, {"measurement": "Half-life T1/2", "setting": "[2]; Injection (1 mg/kg), tail vein", "value": "2.4 ± 0.8", "unit": "h"}, {"measurement": "bioavailability", "setting": "[2]; [3]", "value": 22.1, "unit": "%"}, {"measurement": "half-life", "setting": "[2]; [4]", "value": "3.3 ± 0.5", "unit": "h"}, {"measurement": "AUC(0-inf)", "setting": "[2]; [4]", "value": "7130 ± 1630", "unit": "ng·h/mL"}, {"measurement": "MRT", "setting": "[2]; [4]", "value": "3.6 ± 0.4", "unit": "h"}, {"measurement": "AUC(0-inf)", "setting": "[2]; [5]", "value": "3230 ± 659", "unit": "ng·h/mL"}, {"measurement": "MRT", "setting": "[2]; [5]", "value": "1.2 ± 0.4", "unit": "h"}]}
{"compound": "COc1ccc(COc2c(OC)ccc3c2C[C@@H](C(=O)O)N(c2nc4ccc(F)cc4o2)C3)nc1", "note": "[Example 36, (S)-2-(6-fluorobenzo[d]oxazol-2-yl)-6-methoxy-5-((5-methoxypyridin-2-yl)methoxy)-1,2,3,4-tetrahydroisoquinoline-3-carboxylic acid]", "values": [{"measurement": "IC50", "setting": "Human AT2R", "value": 10, "unit": "nM"}, {"measurement": "half-life at 1 µM", "setting": "[1]", "value": 768, "unit": "min"}, {"measurement": "bioavailability", "setting": "[2]; [3]", "value": 53.7, "unit": "%"}, {"measurement": "half-life", "setting": "[2]; [4]", "value": "3.8 ± 1", "unit": "h"}, {"measurement": "AUC(0-inf)", "setting": "[2]; [4]", "value": "24700 ± 9400", "unit": "ng·h/mL"}, {"measurement": "Cmax", "setting": "[2]; male, Sprague-Dawley, rat, plasma, Oral (10 mg/kg), read-out: blood concentration Cmax", "value": "4740 ± 662", "unit": "ng/mL"}, {"measurement": "MRT", "setting": "[2]; [4]", "value": "5.4 ± 1.3", "unit": "h"}, {"measurement": "half-life", "setting": "[2]; [5]", "value": "4.8 ± 2.6", "unit": "h"}, {"measurement": "AUC(0-inf)", "setting": "[2]; [5]", "value": "4600 ± 240", "unit": "ng·h/mL"}, {"measurement": "MRT", "setting": "[2]; [5]", "value": "2.3 ± 0.6", "unit": "h"}]}
